Data taken from patent US9296741B2, “Bromodomain inhibitors” (priority 2012, dated 2016).

Assays:
[1] = target: human BRD4 first bromodomain (BDI_K57-E168) (Homo sapiens (Human), UniProt O60885); experiment: TR-FRET bromodomain binding assay, BRD4 first bromodomain
[2] = target: human BRD4 second bromodomain (BDII_E352-M457) (Homo sapiens (Human), UniProt O60885); experiment: TR-FRET bromodomain binding assay, BRD4 second bromodomain
[3] = Human liver microsome stability assay; type: in vitro ADME; details: both sexes, human, microsomes, pH 7.4
[4] = Rat liver microsome stability assay; type: in vitro ADME; details: rat liver microsomes (male Sprague-Dawley), 0.5 μM test compound, 0.25 mg/mL microsomal protein, pH 7.4, 37° C.; read-out: Stability in rat liver microsomes (t1/2 in minutes)
[5] = Mouse liver microsome stability assay; type: in vitro ADME; details: male, CD1, mouse, microsomes, pH 7.4

| Ki [1] | Ki [2] | half-life at 0.5 μM [3] | half-life at 0.5 μM [4] | half-life at 0.5 μM [5] | SMILES |
| --- | --- | --- | --- | --- | --- |
| 215 nM | 274 nM | 45 min | 23 min | 12 min | Cn1cc(-c2cc(C(=O)NCc3ccc(F)c(F)c3)ccc2Oc2ccc(F)cc2F)c2cc[nH]c2c1=O [Example 125, N-(3,4-difluorobenzyl)-4-(2,4-difluorophenoxy)-3-(6-methyl-7-oxo-6,7-dihydro-1H-pyrrolo[2,3-c]pyridin-4-yl)benzamide] |
| 2000 nM | 768 nM | 100 min | 21 min | 25 min | Cn1cc(-c2cc(C(=O)NCc3ccc(OC(F)(F)F)cc3)ccc2Oc2ccc(F)cc2F)c2cc[nH]c2c1=O [Example 126, 4-(2,4-difluorophenoxy)-3-(6-methyl-7-oxo-6,7-dihydro-1H-pyrrolo[2,3-c]pyridin-4-yl)-N-[4-(trifluoromethoxy)benzyl]benzamide] |
| 72.5 nM | 112 nM | 11 min | 21 min | 4 min | Cn1cc(-c2cc(C(=O)NCc3cccnc3)ccc2Oc2ccc(F)cc2F)c2cc[nH]c2c1=O [Example 128, 4-(2,4-difluorophenoxy)-3-(6-methyl-7-oxo-6,7-dihydro-1H-pyrrolo[2,3-c]pyridin-4-yl)-N-(pyridin-3-ylmethyl)benzamide] |
| 98.6 nM | 60 nM | > 120 min | 71 min | 83 min | CN(C)CCNC(=O)c1ccc(Oc2ccc(F)cc2F)c(-c2cn(C)c(=O)c3[nH]ccc23)c1 [Example 131, 4-(2,4-difluorophenoxy)-N-[2-(dimethylamino)ethyl]-3-(6-methyl-7-oxo-6,7-dihydro-1H-pyrrolo[2,3-c]pyridin-4-yl)benzamide] |
| 274 nM | 77.4 nM | 8 min | 24 min | 5 min | Cn1cc(-c2cc(C(=O)N3CCC(NC(=O)OC(C)(C)C)CC3)ccc2Oc2ccc(F)cc2F)c2cc[nH]c2c1=O [Example 135, tert-butyl {1-[4-(2,4-difluorophenoxy)-3-(6-methyl-7-oxo-6,7-dihydro-1H-pyrrolo[2,3-c]pyridin-4-yl)benzoyl]piperidin-4-yl}carbamate] |
| 13.8 nM | 10.3 nM | 15 min | 13 min | 9 min | Cn1cc(-c2cc(S(C)(=O)=O)ccc2Oc2cccc3nsnc23)c2cc[nH]c2c1=O [Example 171, 4-[2-(2,1,3-benzothiadiazol-4-yloxy)-5-(methylsulfonyl)phenyl]-6-methyl-1,6-dihydro-7H-pyrrolo[2,3-c]pyridin-7-one] |
| 13.3 nM | 5.9 nM | 9 min | 15 min | 7 min | Cn1cc(-c2cc(S(C)(=O)=O)ccc2Oc2ccc3ccncc3c2)c2cc[nH]c2c1=O [Example 172, 4-[2-(isoquinolin-7-yloxy)-5-(methylsulfonyl)phenyl]-6-methyl-1,6-dihydro-7H-pyrrolo[2,3-c]pyridin-7-one] |
| 15.7 nM | 6.6 nM | 38 min | 5 min | 16 min | Cn1cc(-c2cc(S(C)(=O)=O)ccc2Oc2cc(F)ccc2F)c2cc[nH]c2c1=O [Example 173, 4-[2-(2,5-difluorophenoxy)-5-(methylsulfonyl)phenyl]-6-methyl-1,6-dihydro-7H-pyrrolo[2,3-c]pyridin-7-one] |
| 19.2 nM | 14.3 nM | 40 min | 46 min | 14 min | Cn1cc(-c2cc(S(C)(=O)=O)ccc2Oc2ccc(F)c(F)c2)c2cc[nH]c2c1=O [Example 174, 4-[2-(3,4-difluorophenoxy)-5-(methylsulfonyl)phenyl]-6-methyl-1,6-dihydro-7H-pyrrolo[2,3-c]pyridin-7-one] |
| 21.3 nM | 6 nM | 48 min | 8 min | 29 min | Cn1cc(-c2cc(S(C)(=O)=O)ccc2Oc2cc(F)cc(F)c2)c2cc[nH]c2c1=O [Example 176, 4-[2-(3,5-difluorophenoxy)-5-(methylsulfonyl)phenyl]-6-methyl-1,6-dihydro-7H-pyrrolo[2,3-c]pyridin-7-one] |
| 22.5 nM | 16.5 nM | 80 min | 55 min | 34 min | Cc1ncccc1Oc1ccc(S(C)(=O)=O)cc1-c1cn(C)c(=O)c2[nH]ccc12 [Example 179, 6-methyl-4-{2-[(2-methylpyridin-3-yl)oxy]-5-(methylsulfonyl)phenyl}-1,6-dihydro-7H-pyrrolo[2,3-c]pyridin-7-one] |
| 24.8 nM | 8.2 nM | 9 min | 4 min | 5 min | Cc1ccc(F)cc1Oc1ccc(S(C)(=O)=O)cc1-c1cn(C)c(=O)c2[nH]ccc12 [Example 187, 4-[2-(5-fluoro-2-methylphenoxy)-5-(methylsulfonyl)phenyl]-6-methyl-1,6-dihydro-7H-pyrrolo[2,3-c]pyridin-7-one] |
| 29.4 nM | 18 nM | 26 min | 22 min | 6 min | Cn1cc(-c2cc(S(C)(=O)=O)ccc2Oc2ccc3cccnc3c2)c2cc[nH]c2c1=O [Example 188, 6-methyl-4-[5-(methylsulfonyl)-2-(quinolin-7-yloxy)phenyl]-1,6-dihydro-7H-pyrrolo[2,3-c]pyridin-7-one] |
| 17.8 nM | 8.8 nM | 7 min | 6 min | 2 min | Cn1cc(-c2cc(S(C)(=O)=O)ccc2Oc2ccc3c(c2)CCC3)c2cc[nH]c2c1=O [Example 191, 4-[2-(2,3-dihydro-1H-inden-5-yloxy)-5-(methylsulfonyl)phenyl]-6-methyl-1,6-dihydro-7H-pyrrolo[2,3-c]pyridin-7-one] |
| 51.3 nM | 9.6 nM | 9 min | 5 min | 3 min | CC(C)c1ccc(Oc2ccc(S(C)(=O)=O)cc2-c2cn(C)c(=O)c3[nH]ccc23)cc1 [Example 192, 6-methyl-4-{5-(methylsulfonyl)-2-[4-(propan-2-yl)phenoxy]phenyl}-1,6-dihydro-7H-pyrrolo[2,3-c]pyridin-7-one] |
| 70.4 nM | 13.6 nM | 11 min | 7 min | 2 min | Cn1cc(-c2cc(S(C)(=O)=O)ccc2Oc2cccc3ccncc23)c2cc[nH]c2c1=O [Example 193, 4-[2-(isoquinolin-8-yloxy)-5-(methylsulfonyl)phenyl]-6-methyl-1,6-dihydro-7H-pyrrolo[2,3-c]pyridin-7-one] |
| 28.9 nM | 19.1 nM | 41 min | 38 min | 49 min | Cn1cc(-c2cc(S(C)(=O)=O)ccc2Oc2cc(F)c(F)c(F)c2)c2cc[nH]c2c1=O [Example 194, 6-methyl-4-[5-(methylsulfonyl)-2-(3,4,5-trifluorophenoxy)phenyl]-1,6-dihydro-7H-pyrrolo[2,3-c]pyridin-7-one] |
| 9500 nM | 479 nM | 59 min | 5 min | 3 min | Cn1cc(-c2ccccc2-c2ccccc2)c2cc[nH]c2c1=O [Example 196, 4-(biphenyl-2-yl)-6-methyl-1,6-dihydro-7H-pyrrolo[2,3-c]pyridin-7-one] |
| 69.3 nM | 68.9 nM | > 120 min | > 120 min | > 120 min | Cn1cc(-c2cc(S(C)(=O)=O)ccc2OCCN2CCNC2=O)c2cc[nH]c2c1=O [Example 218, 6-methyl-4-{5-(methylsulfonyl)-2-[2-(2-oxoimidazolidin-1-yl)ethoxy]phenyl}-1,6-dihydro-7H-pyrrolo[2,3-c]pyridin-7-one] |
| 225 nM | 969 nM | 65 min | 80 min | 98 min | CN1CCC[C@H]1COc1ccc(S(C)(=O)=O)cc1-c1cn(C)c(=O)c2[nH]ccc12 [Example 222, 6-methyl-4-[2-{[(2S)-1-methylpyrrolidin-2-yl]methoxy}-5-(methylsulfonyl)phenyl]-1,6-dihydro-7H-pyrrolo[2,3-c]pyridin-7-one] |
| 264 nM | 845 nM | 52 min | 59 min | > 120 min | CN1CCCC1CCOc1ccc(S(C)(=O)=O)cc1-c1cn(C)c(=O)c2[nH]ccc12 (stereo not shown) [Example 225, 6-methyl-4-{2-[2-(1-methylpyrrolidin-2-yl)ethoxy]-5-(methylsulfonyl)phenyl}-1,6-dihydro-7H-pyrrolo[2,3-c]pyridin-7-one] |
| 213 nM | 443 nM | 57 min | > 120 min | > 120 min | Cn1cc(-c2cc(S(C)(=O)=O)ccc2OCCN2CCCC2=O)c2cc[nH]c2c1=O [Example 232, 6-methyl-4-{5-(methylsulfonyl)-2-[2-(2-oxopyrrolidin-1-yl)ethoxy]phenyl}-1,6-dihydro-7H-pyrrolo[2,3-c]pyridin-7-one] |
| 32.9 nM | 23.7 nM | 16 min | 8 min | 16 min | C=C(C)c1cc2c(-c3cc(S(C)(=O)=O)ccc3Oc3ccc(F)cc3F)cn(C)c(=O)c2[nH]1 [Example 291, 4-[2-(2,4-difluorophenoxy)-5-(methylsulfonyl)phenyl]-6-methyl-2-(prop-1-en-2-yl)-1,6-dihydro-7H-pyrrolo[2,3-c]pyridin-7-one] |
